Tests used:
Caspase 3 = test: Western blot, MDA-MB-231 cells, 24 hours; assay type: cell-based; conditions: 2.5, 5, 10 μM, versus Comparator 1, 2 and 4
pRb pSer807/811 = test: Western blot after 2 h treatment, MDA-MB-231; assay type: cell-based; conditions: 5 μM, relative to DMSO control
Description: (§1) Following treatment, a sample of each of the three treatments was analyzed by Western Blot for expression of phosphoprotein targets.

pRb = test: Western blot after 2 h treatment, MDA-MB-231; assay type: cell-based; conditions: 5 μM, relative to DMSO control
Description: as §1

PyMT cells [1] = test: MTT cell viability; assay type: cell-based, mouse; conditions: 24, 48 and 72 hours; Compound 1 2.5, 5, 10 μM; Comparator 1 5 μM
Hs578T spheroids = test: CellTiter Glo 3D spheroid viability; assay type: cell-based; conditions: 48 hours; Compound 1, Comparator 1, Comparator 2 5 μM; Comparator 4 10 μM
Description: Viability of the spheroids was assessed using CellTiter Glo 3D.

PyMT cells [2] = test: Growth and recovery, 6 days treatment and 4 days recovery, cell counts; assay type: cell-based, mouse; conditions: 6 days treatment, counted on days 0, 3, 6, 10
Description: Following 6 days of treatment, the drug treatments were stopped and the cells allowed to recover for 4 days. Cell numbers were counted on days 0, 3, 6, and 10, and the results plotted.

[3] = system: T-47D, HCC-1937, HS-578T, BT-474, MDA-MB-468, and MD-MB-453 cell lines; test: MTT cell viability of breast cancer cell line panel versus comparators, 48 hrs (FIG. 17); assay type: cell-based
NanoLuc-CDK16 Fusion = biological target: T1, NanoLuc-CDK16 Fusion (Homo sapiens, UniProt Q00536); test: Cellular NanoBRET assay in HEK293 cells, raw data ratio; assay type: cell-based
T1 construct: expressed in transfected cells; host or cells: HEK293, transient
Description: HEK293 cells were transfected with 1 ug of NanoLuc-CDK16 Fusion vector and 9 ug of either carrier DNA or cyclin Y DAN. The HEK293 cells transiently expressing the vectors were then seeded into the wells of 384-well plates. The cells were pre-treated with the NanoBRET Tracer K-10 (0.5 uM) and then treated with 3-fold serial dilutions (10 uM-0.5 nM), of Compound 1 or the reference compound APY-69 for 1 hour. The BRET signal was measured on an Envision2104 Multilabel Reader. IC50 value was calculated and IC50 curve was plotted using the GraphPad Prism 4 program based on a sigmoidal dose response equation.

STK17B = biological target: T2, STK17B (Homo sapiens, UniProt O94768); test: CETSA-MS, MDA-MB-231 cell lysates; assay type: binding; conditions: 2 μM and 20 μM
T2 construct: endogenous in cells; host or cells: MDA-MB-231
Description: (§2) Following treatment, cell lysates were thermally treated in a thermal gradient profile across a temperature range. Following the thermal shift, cell lysates were spun by centrifuge to pellet aggregate protein and the supernatant withdrawn. The supernatant was then denatured in buffer and heated to denature, reduce, and alkylate the supernatant proteins. Following heating and cooling to room temperature, cold acetone was added to the supernatant samples and proteins precipitated.
(§3) The intact cell protein samples and lysate protein samples were then digested and labeled for mass spectrometry analysis according to the manufacturer's recommended protocols. Digested and labeled protein samples were analyzed by mass spectrometry proteomic analysis and the resulting protein targets were analyzed and plotted.

ZCRB1 = biological target: T3, ZCRB1 (Homo sapiens, UniProt Q8TBF4); test: CETSA-MS, MDA-MB-231 cell lysates; assay type: binding; conditions: 2 μM and 20 μM
T3 construct: endogenous in cells; host or cells: MDA-MB-231
Description: as §2, §3

FKBP8 = biological target: T4, FKBP8 (Homo sapiens, UniProt Q14318); test: CETSA-MS, MDA-MB-231 cell lysates; assay type: binding; conditions: 2 μM and 20 μM
T4 construct: endogenous in cells; host or cells: MDA-MB-231
Description: as §2, §3

ZNF260 = biological target: T5, ZNF260 (Homo sapiens, UniProt Q3ZCT1); test: CETSA-MS, MDA-MB-231 cell lysates; assay type: binding; conditions: 2 μM and 20 μM
T5 construct: endogenous in cells; host or cells: MDA-MB-231
Description: as §2, §3

CPQ = biological target: T6, CPQ (Homo sapiens, UniProt Q9Y646); test: CETSA-MS, MDA-MB-231 cell lysates; assay type: binding; conditions: 2 μM and 20 μM
T6 construct: endogenous in cells; host or cells: MDA-MB-231
Description: as §2, §3

CDC42BPB = biological target: T7, CDC42BPB (Homo sapiens, UniProt Q9Y5S2); test: CETSA-MS, MDA-MB-231 cell lysates; assay type: binding; conditions: 2 μM and 20 μM
T7 construct: endogenous in cells; host or cells: MDA-MB-231
Description: as §2, §3

PER3 = biological target: T8, PER3 (Homo sapiens, UniProt P56645); test: CETSA-MS, MDA-MB-231 cell lysates; assay type: binding; conditions: 2 μM and 20 μM
T8 construct: endogenous in cells; host or cells: MDA-MB-231
Description: as §2, §3

BUB1 = BUB1 (Homo sapiens, UniProt O43683); test: CETSA-MS, MDA-MB-231 cell lysates; assay type: binding; conditions: 2 μM and 20 μM
Description: as §2, §3

USF2 = biological target: T9, USF2 (Homo sapiens, UniProt Q15853); test: CETSA-MS, MDA-MB-231 cell lysates; assay type: binding; conditions: 2 μM and 20 μM
T9 construct: endogenous in cells; host or cells: MDA-MB-231
Description: as §2, §3

LIMK1 = biological target: T10, LIMK1 (Homo sapiens, UniProt P53667); test: CETSA-MS, MDA-MB-231 cell lysates; assay type: binding; conditions: 2 μM and 20 μM
T10 construct: endogenous in cells; host or cells: MDA-MB-231
Description: as §2, §3

UVSSA = biological target: T11, UVSSA (Homo sapiens, UniProt Q2YD98); test: CETSA-MS, MDA-MB-231 cell lysates; assay type: binding; conditions: 2 μM and 20 μM
T11 construct: endogenous in cells; host or cells: MDA-MB-231
Description: as §2, §3

CDK4/cyclin D1 = CDK4/cyclin D1 (Homo sapiens, UniProt P11802); test: CDK4/cyclin D1 In Vitro Kd, kinase binding assay (qPCR)
Description: Kinase-tagged T7 phage strains were prepared in an E. coli host derived from the BL21 strain. E. coli were grown to log-phase and infected with T7 phage and incubated with shaking at 32° C. until lysis. […] The remaining kinases were produced in HEK-293 cells and subsequently tagged with DNA for qPCR detection. […] The liganded beads were blocked with excess biotin and washed with blocking buffer (SeaBlock (Pierce), 1% BSA, 0.05% Tween 20, 1 mM DTT) to remove unbound ligand and to reduce non-specific binding. […] Test compounds were prepared as 111× stocks in 100% DMSO. Kds were determined using an 11-point 3-fold compound dilution series with three DMSO control points. […] The compounds were then diluted directly into the assays such that the final concentration of DMSO was 0.9%. All reactions performed in polypropylene 384-well plate. Each was a final volume of 0.02 ml. […] The kinase concentration in the eluates was measured by qPCR. […] Curves were fitted using a non-linear least square fit with the Levenberg-Marquardt algorithm.

T1 sequence (Q00536 whole entry, the tested form may be a part): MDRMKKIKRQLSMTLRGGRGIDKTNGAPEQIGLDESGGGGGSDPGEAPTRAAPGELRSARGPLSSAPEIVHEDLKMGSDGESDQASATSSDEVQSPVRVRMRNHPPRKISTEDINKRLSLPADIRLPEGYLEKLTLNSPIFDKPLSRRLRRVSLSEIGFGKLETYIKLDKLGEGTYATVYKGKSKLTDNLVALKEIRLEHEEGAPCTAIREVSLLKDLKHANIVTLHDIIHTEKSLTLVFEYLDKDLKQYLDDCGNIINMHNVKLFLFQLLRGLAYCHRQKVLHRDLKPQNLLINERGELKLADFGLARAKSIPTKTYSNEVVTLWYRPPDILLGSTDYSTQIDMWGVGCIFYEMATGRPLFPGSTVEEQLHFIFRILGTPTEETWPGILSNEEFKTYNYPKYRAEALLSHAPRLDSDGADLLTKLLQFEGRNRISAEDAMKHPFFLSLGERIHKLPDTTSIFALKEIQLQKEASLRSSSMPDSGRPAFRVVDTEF
T1 sequence (Q8ND76 whole entry partner, the tested form may be a part): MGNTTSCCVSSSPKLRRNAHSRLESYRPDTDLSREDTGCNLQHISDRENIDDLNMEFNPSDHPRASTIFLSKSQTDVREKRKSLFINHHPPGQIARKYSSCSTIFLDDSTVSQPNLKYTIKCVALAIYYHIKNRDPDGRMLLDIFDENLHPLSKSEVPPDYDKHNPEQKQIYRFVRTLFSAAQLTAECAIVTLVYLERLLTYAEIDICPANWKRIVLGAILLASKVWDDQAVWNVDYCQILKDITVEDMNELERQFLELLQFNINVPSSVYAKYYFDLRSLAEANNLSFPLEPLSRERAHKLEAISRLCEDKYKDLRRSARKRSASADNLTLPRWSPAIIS
Chain of BUB1 (O43683 whole entry): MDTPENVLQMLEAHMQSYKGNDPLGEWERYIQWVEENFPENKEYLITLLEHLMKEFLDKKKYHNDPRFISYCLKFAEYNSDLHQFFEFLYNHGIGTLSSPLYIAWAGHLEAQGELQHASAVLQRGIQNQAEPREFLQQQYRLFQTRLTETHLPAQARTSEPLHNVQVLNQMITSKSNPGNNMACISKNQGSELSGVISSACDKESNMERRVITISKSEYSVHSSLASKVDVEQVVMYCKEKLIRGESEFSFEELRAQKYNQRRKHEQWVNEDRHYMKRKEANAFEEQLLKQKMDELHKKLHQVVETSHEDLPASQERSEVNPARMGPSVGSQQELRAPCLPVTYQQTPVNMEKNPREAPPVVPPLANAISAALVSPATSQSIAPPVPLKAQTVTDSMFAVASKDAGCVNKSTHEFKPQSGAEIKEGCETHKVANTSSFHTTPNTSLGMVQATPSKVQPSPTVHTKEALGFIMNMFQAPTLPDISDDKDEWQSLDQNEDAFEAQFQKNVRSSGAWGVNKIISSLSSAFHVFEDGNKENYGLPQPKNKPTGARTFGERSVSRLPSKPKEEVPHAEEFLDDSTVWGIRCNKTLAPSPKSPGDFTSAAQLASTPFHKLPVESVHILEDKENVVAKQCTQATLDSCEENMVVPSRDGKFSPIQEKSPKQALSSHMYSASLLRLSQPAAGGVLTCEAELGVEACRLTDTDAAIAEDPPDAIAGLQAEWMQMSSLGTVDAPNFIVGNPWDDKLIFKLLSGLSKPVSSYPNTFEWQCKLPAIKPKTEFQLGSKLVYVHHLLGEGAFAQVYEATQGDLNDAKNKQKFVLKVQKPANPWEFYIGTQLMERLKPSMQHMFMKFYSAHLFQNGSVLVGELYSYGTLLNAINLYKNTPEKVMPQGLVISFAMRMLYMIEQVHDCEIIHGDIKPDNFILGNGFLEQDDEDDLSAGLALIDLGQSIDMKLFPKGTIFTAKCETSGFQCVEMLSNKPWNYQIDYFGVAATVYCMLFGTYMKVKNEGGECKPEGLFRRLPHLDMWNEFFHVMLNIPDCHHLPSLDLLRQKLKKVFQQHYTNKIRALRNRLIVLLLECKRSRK
T8 sequence (P56645 whole entry): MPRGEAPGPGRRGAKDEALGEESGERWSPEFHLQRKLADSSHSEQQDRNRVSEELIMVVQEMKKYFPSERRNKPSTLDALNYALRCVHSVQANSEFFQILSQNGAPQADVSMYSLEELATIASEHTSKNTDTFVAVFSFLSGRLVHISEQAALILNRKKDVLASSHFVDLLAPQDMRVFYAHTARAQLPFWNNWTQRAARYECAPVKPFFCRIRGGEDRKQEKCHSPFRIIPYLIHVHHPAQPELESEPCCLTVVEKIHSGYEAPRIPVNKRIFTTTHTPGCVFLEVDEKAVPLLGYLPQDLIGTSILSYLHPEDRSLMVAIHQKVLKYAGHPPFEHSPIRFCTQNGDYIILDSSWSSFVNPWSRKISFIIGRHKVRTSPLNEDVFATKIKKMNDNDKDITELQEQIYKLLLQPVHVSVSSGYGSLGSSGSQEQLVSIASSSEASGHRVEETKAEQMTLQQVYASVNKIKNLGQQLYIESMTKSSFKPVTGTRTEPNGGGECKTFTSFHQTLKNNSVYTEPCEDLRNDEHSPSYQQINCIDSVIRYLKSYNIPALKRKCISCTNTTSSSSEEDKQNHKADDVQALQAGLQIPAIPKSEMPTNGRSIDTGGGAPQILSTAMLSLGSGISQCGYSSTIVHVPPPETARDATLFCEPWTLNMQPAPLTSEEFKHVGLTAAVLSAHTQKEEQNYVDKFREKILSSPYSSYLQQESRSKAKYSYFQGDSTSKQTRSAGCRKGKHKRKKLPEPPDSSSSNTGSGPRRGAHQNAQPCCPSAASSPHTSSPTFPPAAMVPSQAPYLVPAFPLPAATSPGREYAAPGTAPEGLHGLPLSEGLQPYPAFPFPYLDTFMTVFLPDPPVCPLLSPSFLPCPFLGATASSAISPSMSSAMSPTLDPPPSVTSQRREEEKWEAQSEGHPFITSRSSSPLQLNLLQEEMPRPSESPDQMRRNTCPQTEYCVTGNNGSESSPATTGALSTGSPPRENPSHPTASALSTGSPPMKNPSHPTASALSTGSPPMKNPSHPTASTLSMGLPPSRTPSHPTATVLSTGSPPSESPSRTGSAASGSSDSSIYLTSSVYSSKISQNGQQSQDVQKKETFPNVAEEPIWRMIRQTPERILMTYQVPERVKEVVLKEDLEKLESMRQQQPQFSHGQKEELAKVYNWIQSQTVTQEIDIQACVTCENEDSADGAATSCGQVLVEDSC
T5 sequence (Q3ZCT1 whole entry): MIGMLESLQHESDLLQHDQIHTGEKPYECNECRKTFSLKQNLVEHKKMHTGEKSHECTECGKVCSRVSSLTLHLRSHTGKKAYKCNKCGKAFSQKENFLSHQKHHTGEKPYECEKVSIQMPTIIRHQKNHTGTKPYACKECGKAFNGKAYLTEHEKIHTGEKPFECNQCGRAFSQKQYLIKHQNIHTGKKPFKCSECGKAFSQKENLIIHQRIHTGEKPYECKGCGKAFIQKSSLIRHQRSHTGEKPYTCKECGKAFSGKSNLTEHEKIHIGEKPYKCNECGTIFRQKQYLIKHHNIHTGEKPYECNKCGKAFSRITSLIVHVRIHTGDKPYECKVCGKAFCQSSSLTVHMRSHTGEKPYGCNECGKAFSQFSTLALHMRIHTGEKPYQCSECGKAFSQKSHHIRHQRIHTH
T9 sequence (Q15853 whole entry): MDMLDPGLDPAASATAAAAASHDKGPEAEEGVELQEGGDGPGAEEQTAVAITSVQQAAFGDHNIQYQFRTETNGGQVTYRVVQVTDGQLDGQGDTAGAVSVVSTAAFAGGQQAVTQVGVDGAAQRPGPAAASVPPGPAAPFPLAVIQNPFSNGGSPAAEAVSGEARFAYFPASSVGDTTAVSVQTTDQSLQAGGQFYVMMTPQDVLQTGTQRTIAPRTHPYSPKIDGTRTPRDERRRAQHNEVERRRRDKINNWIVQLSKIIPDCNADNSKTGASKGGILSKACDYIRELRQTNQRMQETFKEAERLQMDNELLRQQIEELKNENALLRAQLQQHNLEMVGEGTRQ
T4 sequence (Q14318 whole entry): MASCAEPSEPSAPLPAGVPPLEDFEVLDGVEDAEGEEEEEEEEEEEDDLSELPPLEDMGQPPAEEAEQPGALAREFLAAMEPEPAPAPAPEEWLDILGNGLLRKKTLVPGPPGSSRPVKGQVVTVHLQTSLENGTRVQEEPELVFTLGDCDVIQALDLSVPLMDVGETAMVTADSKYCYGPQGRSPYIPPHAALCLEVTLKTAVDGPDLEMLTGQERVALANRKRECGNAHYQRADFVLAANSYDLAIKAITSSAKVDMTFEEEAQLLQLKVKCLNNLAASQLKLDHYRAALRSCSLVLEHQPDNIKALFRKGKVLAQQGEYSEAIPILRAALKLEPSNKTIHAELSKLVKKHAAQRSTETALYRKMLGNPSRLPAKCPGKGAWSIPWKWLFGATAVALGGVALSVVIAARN
Chain of CDK4/cyclin D1 (P11802 whole entry): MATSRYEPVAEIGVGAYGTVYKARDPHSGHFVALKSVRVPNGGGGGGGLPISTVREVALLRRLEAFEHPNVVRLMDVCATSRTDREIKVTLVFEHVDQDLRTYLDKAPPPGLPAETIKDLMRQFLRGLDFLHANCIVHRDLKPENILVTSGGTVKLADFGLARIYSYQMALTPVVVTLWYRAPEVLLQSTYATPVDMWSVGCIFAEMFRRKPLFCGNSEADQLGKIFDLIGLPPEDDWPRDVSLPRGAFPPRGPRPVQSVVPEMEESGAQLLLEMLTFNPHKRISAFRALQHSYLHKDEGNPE
Chain of CDK4/cyclin D1 (P24385 whole entry partner): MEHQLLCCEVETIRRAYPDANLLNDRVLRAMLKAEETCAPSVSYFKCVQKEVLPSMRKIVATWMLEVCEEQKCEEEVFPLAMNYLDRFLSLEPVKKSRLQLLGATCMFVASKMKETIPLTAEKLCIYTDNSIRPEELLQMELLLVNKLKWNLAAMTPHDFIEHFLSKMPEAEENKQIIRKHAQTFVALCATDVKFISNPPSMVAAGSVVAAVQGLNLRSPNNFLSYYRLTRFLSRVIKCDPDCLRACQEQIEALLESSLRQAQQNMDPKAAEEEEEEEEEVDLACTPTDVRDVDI

SMILES: CN1CCN(c2ccc(Nc3ncc4cc(C#N)c(=O)n(C5CCCC5)c4n3)cc2)CC1 [Compound 1, 8-cyclopentyl-2-((4-(4-methylpiperazin-1-yl)phenyl)amino)-7-oxo-7,8-dihydropyrido[2,3-d]pyrimidine-6-carbonitrile]
- Caspase 3 levels (Caspase 3): decreasing
- phosphorylation of pRb at Ser807/811 (pRb pSer807/811): decreased phosphorylation
- pRb levels (pRb): decreased pRb levels
- cell death (MTT cell viability) (PyMT cells [1]): increased cell death relative to DMSO
- decrease in organoid viability compared to DMSO (Hs578T spheroids): ~40%
- PyMT cell numbers, treatment and recovery phase (PyMT cells [2]): small decrease in cell number at day 3 that then increased throughout the rest of the experiment
- dose dependence of cell death (MTT) ([3]; 2.5, 5.0, 10 μM, HCC-1937, Hs-578T, BT-474, MDA-MB-468, MDA-MB-453): dose-dependent effect
- cell death (MTT), comparison of treatments ([3]; Comparator 4 10 μM, Comparator 1 and 2 5 μM, Compound 1 2.5, 5.0, 10 μM): greater potency in inducing cell death compared to both Comparator 1 and Comparator 2
- raw data ratio 600 nm/460 nm, Data 1 (NanoLuc-CDK16 Fusion; Conc. 0.0005 μM): 0.07557
- raw data ratio 600 nm/460 nm, Data 2 (NanoLuc-CDK16 Fusion; Conc. 0.0005 μM): 0.0761
- raw data ratio 600 nm/460 nm, Data 1 (NanoLuc-CDK16 Fusion; Conc. 0.0015 μM): 0.06908
- raw data ratio 600 nm/460 nm, Data 2 (NanoLuc-CDK16 Fusion; Conc. 0.0015 μM): 0.06919
- raw data ratio 600 nm/460 nm, Data 1 (NanoLuc-CDK16 Fusion; Conc. 0.0046 μM): 0.05883
- raw data ratio 600 nm/460 nm, Data 2 (NanoLuc-CDK16 Fusion; Conc. 0.0046 μM): 0.05984
- raw data ratio 600 nm/460 nm, Data 1 (NanoLuc-CDK16 Fusion; Conc. 0.0137 μM): 0.04626
- raw data ratio 600 nm/460 nm, Data 2 (NanoLuc-CDK16 Fusion; Conc. 0.0137 μM): 0.04683
- raw data ratio 600 nm/460 nm, Data 1 (NanoLuc-CDK16 Fusion; Conc. 0.0412 μM): 0.04036
- raw data ratio 600 nm/460 nm, Data 2 (NanoLuc-CDK16 Fusion; Conc. 0.0412 μM): 0.04048
- raw data ratio 600 nm/460 nm, Data 1 (NanoLuc-CDK16 Fusion; Conc. 0.1235 μM): 0.02963
- raw data ratio 600 nm/460 nm, Data 2 (NanoLuc-CDK16 Fusion; Conc. 0.1235 μM): 0.03005
- raw data ratio 600 nm/460 nm, Data 1 (NanoLuc-CDK16 Fusion; Conc. 0.3704 μM): 0.02837
- raw data ratio 600 nm/460 nm, Data 2 (NanoLuc-CDK16 Fusion; Conc. 0.3704 μM): 0.02942
- raw data ratio 600 nm/460 nm, Data 1 (NanoLuc-CDK16 Fusion; Conc. 1.1111 μM): 0.02836
- raw data ratio 600 nm/460 nm, Data 2 (NanoLuc-CDK16 Fusion; Conc. 1.1111 μM): 0.02899
- raw data ratio 600 nm/460 nm, Data 1 (NanoLuc-CDK16 Fusion; Conc. 3.3333 μM): 0.02996
- raw data ratio 600 nm/460 nm, Data 2 (NanoLuc-CDK16 Fusion; Conc. 3.3333 μM): 0.02908
- raw data ratio 600 nm/460 nm, Data 1 (NanoLuc-CDK16 Fusion; Conc. 10.0000 μM): 0.02733
- raw data ratio 600 nm/460 nm, Data 2 (NanoLuc-CDK16 Fusion; Conc. 10.0000 μM): 0.02831
- Group (CETSA-MS thermal shift) (STK17B): Stabilization
- Group (CETSA-MS thermal shift) (ZCRB1): Stabilization
- Group (CETSA-MS thermal shift) (FKBP8): Stabilization
- Group (CETSA-MS thermal shift) (ZNF260): Destabilization
- Group (CETSA-MS thermal shift) (CPQ): Stabilization
- Group (CETSA-MS thermal shift) (CDC42BPB): Destabilization
- Group (CETSA-MS thermal shift) (PER3): Stabilization
- Group (CETSA-MS thermal shift) (BUB1): Stabilization
- Group (CETSA-MS thermal shift) (USF2): Stabilization
- Group (CETSA-MS thermal shift) (LIMK1): Stabilization
- Group (CETSA-MS thermal shift) (UVSSA): Destabilization
- Kd (CDK4/cyclin D1): 0.18 nM
